Assay [1] deals with SARS-CoV-2 spike. The class given is binding. Particulars: for Kd: pH 7.4.
The subject of assay [2] is SARS-CoV-2 spike.
The target in assay [3] is Env (monomeric gp140; Clade CRF07_BC). The assay can be described thus: BLI of HS/HEP to monomeric Env. More on the design: species or system HIV-1. The conditions noted are these: steady-state analysis of BLI data; read-out: Estimated binding affinity (KD).
Assay [4] concerns the target trimeric Env (Group M; Clade C). The assay is described as follows: BLI of HS to trimeric Env. Particulars: read-out: estimated binding affinity. More on the design: species or system HIV-1.
Assay [5] relates to variants of Env (trimeric gp140; Clade C, B, A). The assay can be described thus: BLI of HS to variants of trimeric Env. The class given is binding, HIV-1.

As to chondroitin sulfate [CS25], in assay [1], the Kd turned out to be 17.9 nM.

With heparan sulfate [HS15], the “LFSA signal intensity of capture probes” value in assay [2] is “highest signal intensity”.

For the substance heparan sulfate [HS], the Kd in assay [3] was 142 nM; in assay [4] it was 28 nM. Also, the “Binding affinity of HS to all the subtypes” value in assay [5] is listed as “in the nanomolar range”.

heparin [HEP15, reference compound] yielded a Kd in assay [1] of 215 nM.

heparin [HEP27, reference compound]: in assay [2], the “LFSA signal intensity of capture probes” value was “lower signal intensity”.

On to heparin [reference compound], for which the “HEP binding affinity to spike as ionic strength increased” value in assay [1] is on record as “dramatically decreased”. The Kd in assay [3] is 209 nM.

(Values after patent publication US20250237650A1 (priority 2021, published 2025).)
